This passage reports Ki, inhibition and Activity results from ChEMBL document CHEMBL4673196, “Synthesis and sigma receptor affinity of spiro[[2]benzopyran-1,1-cyclohexanes] with an exocyclic amino moiety in the 3-position” (RSC Med Chem, 2021).

For orientation: Ki means the equilibrium dissociation constant of an inhibitor or competing ligand from its target. Lower therefore signals a stronger hold on the target. The inhibition is the percentage by which the read-out fell short of the control. Read a low inhibition as a weak effect.

Assay [1] addresses Sigma non-opioid intracellular receptor 1 (Cavia porcellus, UniProt Q60492). In words: Displacement of [3H]-pentazocine from guinea pig brain sigma 1 receptor incubated for 120 mins by liquid scintillation counting method. It counts as tissue-based.
Assay [2] addresses T1, Sigma intracellular receptor 2 (Rattus norvegicus) (UniProt Q5U3Y7).
T1 sequence (whole entry): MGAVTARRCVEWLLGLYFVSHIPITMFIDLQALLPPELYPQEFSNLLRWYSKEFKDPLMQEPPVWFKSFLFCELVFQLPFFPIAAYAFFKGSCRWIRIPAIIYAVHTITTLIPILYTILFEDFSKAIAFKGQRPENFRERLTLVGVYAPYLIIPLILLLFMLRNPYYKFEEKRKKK
In words: Displacement of [3H]-DTG from Sprague-Dawley rat liver sigma 2 receptor at 1 uM incubated for 120 mins by liquid scintillation counting method relative to control. It counts as tissue-based. (Loss of bound radioactivity is the signal in a displacement assay; it reports binding, not function.)

The target of assay [3] is T2, Sigma intracellular receptor 2 (Rattus norvegicus, UniProt Q5U3Y7).
T2 sequence (Q5U3Y7 whole entry): T1 sequence (whole entry)
In words: Displacement of [3H]-DTG from Sprague-Dawley rat liver sigma 2 receptor incubated for 120 mins by liquid scintillation counting method. The class given is tissue-based.

The target in assay [4] is T3, Delta-type opioid receptor (Homo sapiens, UniProt P41143). In words: Binding affinity to DOR (unknown origin).
The target of assay [5] is T4, Mu-type opioid receptor (Homo sapiens, UniProt P35372). Nature of the assay: Binding affinity to MOR (unknown origin).
Assay [6] deals with T5, Kappa-type opioid receptor (Homo sapiens, UniProt P41145). In words: Binding affinity to KOR (unknown origin).
Assay [7] concerns the target T3, Delta-type opioid receptor. In words: Binding affinity to DOR (unknown origin) at <= 1 uM. The settings on record: dose microM <=1.
For assay [8], the target named is T5, Kappa-type opioid receptor. In words: Binding affinity to KOR (unknown origin) at <= 1 uM. The settings on record: dose microM <=1.
For assay [9], the target named is T4, Mu-type opioid receptor. In words: Binding affinity to MOR (unknown origin) at <= 1 uM. The settings on record: dose microM <=1.

Activity calls are given as the source filed them. The rule behind the calls is not given here.

Sequence of Sigma non-opioid intracellular receptor 1 (Q60492 whole entry): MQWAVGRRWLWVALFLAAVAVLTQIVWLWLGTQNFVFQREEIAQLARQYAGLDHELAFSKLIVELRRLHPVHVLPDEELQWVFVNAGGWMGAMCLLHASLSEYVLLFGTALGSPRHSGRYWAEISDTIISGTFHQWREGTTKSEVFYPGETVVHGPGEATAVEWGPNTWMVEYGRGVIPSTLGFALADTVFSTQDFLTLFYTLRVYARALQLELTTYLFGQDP
T3 sequence (P41143 whole entry): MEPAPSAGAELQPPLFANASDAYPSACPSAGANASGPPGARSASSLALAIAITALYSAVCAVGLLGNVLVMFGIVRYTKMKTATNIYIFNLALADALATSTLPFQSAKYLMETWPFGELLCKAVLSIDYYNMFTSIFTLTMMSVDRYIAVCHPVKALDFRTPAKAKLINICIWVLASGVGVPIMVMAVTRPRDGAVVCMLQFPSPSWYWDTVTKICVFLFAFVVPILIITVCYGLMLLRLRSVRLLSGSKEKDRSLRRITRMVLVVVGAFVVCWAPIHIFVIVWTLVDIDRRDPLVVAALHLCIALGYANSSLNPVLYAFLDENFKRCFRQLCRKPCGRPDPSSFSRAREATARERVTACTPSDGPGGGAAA
T5 sequence (P41145 whole entry): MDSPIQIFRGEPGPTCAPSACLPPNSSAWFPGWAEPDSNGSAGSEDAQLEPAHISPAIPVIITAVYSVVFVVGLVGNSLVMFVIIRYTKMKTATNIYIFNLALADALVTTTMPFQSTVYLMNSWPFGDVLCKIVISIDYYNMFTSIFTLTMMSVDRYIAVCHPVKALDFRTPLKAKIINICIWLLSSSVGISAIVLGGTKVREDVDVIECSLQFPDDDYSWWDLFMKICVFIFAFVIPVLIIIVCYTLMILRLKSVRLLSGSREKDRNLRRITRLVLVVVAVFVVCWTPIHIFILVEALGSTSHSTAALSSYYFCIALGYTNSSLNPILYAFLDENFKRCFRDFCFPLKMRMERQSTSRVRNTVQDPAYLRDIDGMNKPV
T4 sequence (P35372 whole entry): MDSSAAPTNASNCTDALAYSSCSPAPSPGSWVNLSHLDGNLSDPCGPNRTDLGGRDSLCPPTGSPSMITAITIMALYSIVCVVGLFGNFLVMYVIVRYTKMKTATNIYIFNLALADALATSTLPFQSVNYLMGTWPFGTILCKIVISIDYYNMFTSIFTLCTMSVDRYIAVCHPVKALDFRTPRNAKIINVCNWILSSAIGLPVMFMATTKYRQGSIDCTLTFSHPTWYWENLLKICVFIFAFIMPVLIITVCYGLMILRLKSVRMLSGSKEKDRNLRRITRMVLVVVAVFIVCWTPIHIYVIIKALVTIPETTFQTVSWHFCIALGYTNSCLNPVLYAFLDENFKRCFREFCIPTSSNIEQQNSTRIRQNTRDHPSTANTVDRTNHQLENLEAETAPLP

`CN(Cc1ccccc1)[C@H]1CCC[C@]2(C1)OCCc1ccccc12` (relative stereo) came in with a Ki in assay [1] of 278 nM. Besides, the inhibition in [2] is 24%.
In the case of `c1ccc(CN[C@H]2CCC[C@]3(C2)OCCc2ccccc23)cc1` (relative stereo), the Ki in [3] is 340 nM; in assay [1], 95 nM.
For the molecule `c1ccc2c(c1)CCO[C@@]21CCC[C@H](NCC2CCCCC2)C1` (relative stereo), the Ki in assay [4] is 150 nM; in [3], 60 nM; on Mu-type opioid receptor [5], 696 nM; in assay [1], 5.4 nM; in assay [6], 407 nM.
Consider `CN(CC1CCCCC1)[C@H]1CCC[C@]2(C1)OCCc1ccccc12` (relative stereo), for which the outcome (in [7]; in assay [8]; on Mu-type opioid receptor [9]) was inactive. Moreover, affinity in assay [1] was put at a Ki of 15 nM. The molecule also gave an inhibition in assay [2] of 34%.
